Key:
[1] = tested on: human TERT expression (hTERT mRNA); experiment: Quantitative real-time RT-PCR of hTERT mRNA expression (Ct, transcripts) in compound-treated cells; format: cell-based; details: quantitative real-time RT-PCR
Text: Telomerase is a ribonucleoprotein complex composed of the catalytic protein subunit (human telomerase reverse transcriptase or hTERT) and the RNA template. hTERT expression level can be measured by PCR.
Briefly, amplification of the target sequence is monitored per PCR cycle by detecting the fluorescence signal emitted by an internal probe that is degraded by the 5′ nuclease activity of the Taq polymerase. The emission signal accumulates in each sample, and the Ct required to reach a given fluorescence threshold is determined (Ct stands for Cycle Threshold and is a measure of the number of PCR cycles that are required to amplify a target—thus, a lower Ct score means that there is more abundant hTERT mRNA). Thus, the Ct value of a sample inversely correlates to the quantity of the starting cDNA which correlates to the number of mRNA transcripts. Using the cDNA of known quantity, a standard curve can be generated and used to determine the starting amount of mRNA transcripts based on the […] of each sample.
Quantitative real-time PCR can be done on cDNA from test compound-treated and nontreated cells by use of a ABI Prism 7900 Sequence Detection System (PE Applied Biosystems, Foster City, CA) following the Assays-on-Demand protocol (PE Applied Biosystems, Foster City, CA). Quantitative data can be analyzed using the Sequence Detection System software version 2.1 (PE Applied Biosystems).
The following compounds were tested in assays designed to identify compounds that enhance human TERT expression.

viable cells in culture = experiment: Cell viability assay (CellTiter-Glo Luminescent Cell Viability Assay, ATP quantitation, percent of vehicle control)
Protocol: Cell viability is determined using a homogeneous method, such as CellTiter-Glo® Luminescent Cell Viability Assay (Promega Corporation, Madison, WI.) to determine the number of viable cells in culture These assays are based on quantitation of the ATP present, which signals the presence of metabolically active cells. Luminescent values of compound treated cells are compared to that of cells treated with vehicle alone to determine the average cell viability as a percent of control.

| SMILES | Average Number of hTERT Transcripts [1] | Average Cell Viability after 24 Hours (% DMSO) (viable cells in culture) |
| --- | --- | --- |
| CCCCc1c(C)[nH]c2c(-c3ccc(Cl)cc3)c(C)nn2c1=O [compound 1167] | 66.71 | 97.27 % DMSO |
| Cc1ccc(SCc2cc(=O)n3nc(C)c(-c4ccc(F)cc4)c3[nH]2)cc1 [compound 1168] | 79.80 | 63.67 % DMSO |
| Cc1nn2c(=O)cc(-c3ccc(F)cc3)[nH]c2c1-c1ccccc1 [compound 1169] | 122.92 | 56.42 % DMSO |
| COc1ccc2sc(Nc3nc(C)n(-c4ccccc4)c(=O)n3)nc2c1 [compound 1170] | 102.53 | 36.74 % DMSO |
| O=C(Nc1nc(-c2ccccn2)cs1)c1ccc(Br)s1 [compound 1171] | 22.66 | 56.61 % DMSO |
| COc1cc(OC)cc(C(=O)Nc2nc(-c3ccccn3)cs2)c1 [compound 1172] | 28.72 | 88.81 % DMSO |
| O=C(Nc1nc(-c2ccccn2)cs1)c1cccc(S(=O)(=O)N2CCOCC2)c1 [compound 1173] | 43.63 | 86.99 % DMSO |
| O=C(Nc1nc(-c2ccccn2)cs1)c1cccc(S(=O)(=O)N2CCCCC2)c1 [compound 1174] | 12.12 | 73.06 % DMSO |
| CCCN(CCC)S(=O)(=O)c1cccc(C(=O)Nc2nc(-c3ccccn3)cs2)c1 [compound 1175] | 29.54 | 74.43 % DMSO |
| COc1ccc(-c2nnc(NC(=O)c3ccc(Cl)cc3)o2)cc1 [compound 1178] | 63.78 | 83.07 % DMSO |
| O=C(NCCCn1ccnc1)c1cc(-c2ccc(F)cc2)on1 [compound 1179] | 3.70 | 97.79 % DMSO |
| CCCNC(=O)c1cc(-c2ccc(F)cc2)on1 [compound 1180] | 56.10 | 81.47 % DMSO |
| CCCCNC(=O)c1cc(-c2ccc(F)cc2)on1 [compound 1181] | 24.74 | 85.44 % DMSO |
| C=CCNC(=O)c1cc(-c2ccc(F)cc2)on1 [compound 1182] | 19.03 | 87.44 % DMSO |
| O=C(NCCCN1CCOCC1)c1cc(-c2cccs2)on1 [compound 1183] | 37.61 | 88.76 % DMSO |
| O=C(NC1CCCC1)c1cc(-c2cccs2)on1 [compound 1184] | 73.49 | 88.36 % DMSO |
| O=C(NCCc1ccccc1)c1cc(-c2cccs2)on1 [compound 1185] | 20.89 | 80.02 % DMSO |
| O=C(NCCCn1ccnc1)c1cc(-c2cccs2)on1 [compound 1186] | 367.36 | 94.79 % DMSO |
| O=C(NCCN1CCOCC1)c1cc(-c2cccs2)on1 [compound 1187] | 61.19 | 95.94 % DMSO |
| CCCNC(=O)c1cc(-c2cccs2)on1 [compound 1188, 5-thiophen-2-yl-isoxazole-3-carboxylic acid propylamide] | 295.07 | 88.71 % DMSO |
| CC(C)CNC(=O)c1cc(-c2cccs2)on1 [compound 1189] | 73.15 | 83.26 % DMSO |

| SMILES | Average Number of hTERT Transcripts [1] | Average Cell Viability after 24 Hours (% DMSO) (viable cells in culture) |
| --- | --- | --- |
| CCCNC(=O)c1cc(-c2ccco2)on1 [compound 1190] | 41.79 | 96.27 % DMSO |
| CCCCNC(=O)c1cc(-c2ccco2)on1 [compound 1191] | 164.47 | 95.11 % DMSO |
| C=CCNC(=O)c1cc(-c2cccs2)on1 [compound 1192] | 279.74 | 95.64 % DMSO |
| COc1ccc(-c2n[nH]c3c2C(c2ccc(O)cc2)N(c2ccc(Br)cc2)C3=O)cc1 (stereo not shown) [compound 1193] | 3.56 | 22.74 % DMSO |
| CCOC(=O)c1ccc(N2C(=O)c3[nH]nc(-c4ccccc4)c3C2c2ccccc2OC)cc1 (stereo not shown) [compound 1194] | 6.20 | 76.71 % DMSO |
| Cc1cccnc1Nc1nc(-c2ccccn2)cs1 [compound 1195] | 220.50 | 95.66 % DMSO |
| COCCNC(=O)c1cc(-c2cccs2)on1 [compound 1196] | 163.15 | 98.07 % DMSO |
| CCCCNC(=O)c1cc(-c2cccs2)on1 [compound 1197] | 168.54 | 88.24 % DMSO |
| CCOC(=O)c1ccc(N2C(=O)c3[nH]nc(-c4ccco4)c3C2c2ccc(O)cc2)cc1 (stereo not shown) [compound 1198] | 104.02 | 64.75 % DMSO |
| CCOC(=O)c1ccc(N2C(=O)c3[nH]nc(-c4cccs4)c3C2c2ccc(O)c(OCC)c2)cc1 (stereo not shown) [compound 1199] | 110.78 | 57.55 % DMSO |
| CCCc1nnc(NC(=O)CSc2nnc(-c3cccs3)o2)s1 [compound 1200] | 198.48 | 74.03 % DMSO |
| O=C(Nc1nc(-c2ccccn2)cs1)c1nc2ccccc2s1 [compound 1201] | 49.55 | 74.59 % DMSO |
| O=C(CS(=O)(=O)c1ccccc1)Nc1nc(-c2ccccn2)cs1 [compound 1202] | 141.08 | 72.91 % DMSO |
| O=C(CS(=O)(=O)c1ccc(F)cc1)Nc1nc(-c2ccccn2)cs1 [compound 1203] | 119.23 | 73.09 % DMSO |
| O=C(Nc1nc(-c2ccccn2)cs1)C1COc2ccccc2O1 (stereo not shown) [compound 1204] | 76.87 | 55.98 % DMSO |
| O=C(Nc1nc(-c2ccccn2)cs1)c1ccc2ncsc2c1 [compound 1205] | 114.55 | 86.42 % DMSO |
| O=C(NCC1CCCO1)c1cc(-c2cccs2)on1 (stereo not shown) [compound 1206] | 80.15 | 83.74 % DMSO |
| CCNC(=O)c1cc(-c2cccs2)on1 [compound 1207] | 275.25 | 87.06 % DMSO |
| O=C(NC1CC1)c1cc(-c2cccs2)on1 [compound 1208] | 380.09 | 70.93 % DMSO |
| C=CCN1C(C(=O)c2ccccc2)=C(OC(=O)c2ccc(Cl)cc2)c2ccccc2S1(=O)=O [compound 1209] | 21.73 | 91.26 % DMSO |

Source: patent US12404304B1, “Telomerase reverse transcriptase (TERT) expression enhancing compounds and methods for using the same” (Sierra Sciences, LLC, priority 2007, dated 2025)
